# Legend:
# Type in all cases: in vivo
# [1] = tested on: Zucker fatty rats; assay: Other plasma analytes (lactate, lipids, ketones) in treated Zucker fatty rats; conditions: ZFR, BT2 20 mg/kg i.p. daily for one week, vs vehicle
# Procedure: (§1) Individually housed, male 12 week-old Zucker fatty rats (ZFR, Charles River Laboratories) maintained on a custom control low fat (LF) diet (A11072001, Research Diets) were used for the BDK inhibition and PPM1K overexpression studies. For the BDK inhibition study, ZFR were administered the small molecule BDK inhibitor 3,6-dichlorobenzo[b]thiophene-2-carboxylic acid (BT2, Sigma) daily at a dose of 20 mg/kg dissolved in 200 ul of sterile dimethylsulfoxide by i.p. injection for 7 days. The control group was administered an equal volume of vehicle each day. […]
# (§2) Plasma concentrations of the alpha-keto acids of leucine (α-keto-isocaproate, KIC), isoleucine (α-keto-β-methylvalerate, KMV) and valine (α-keto-isovalerate, KIV) were measured by LC-MS as previously described (Glynn et al., 2015; White et al., 2016). Other plasma analytes were measured on a Beckman DxC600 autoanalyzer, using reagents for lactate, total cholesterol, and triglycerides from Beckman, and non-esterified fatty acids (NEFA) and ketones (total and 3-hydroxybutyrate) from Wako (Richmond, Va.). Glycerol was measured using reagents from TG-B by Roche Diagnostics (Indianapolis, Ind.). Liver triglycerides were quantified using the triglyceride quantification kit from Abcam. Plasma insulin concentrations were measured with a Millipore EMD Rat insulin ELISA kit.
# [2] = tested on: Zucker fatty rats; assay: Indirect calorimetry in BT2-treated Zucker fatty rats; conditions: ZFR, BT2 20 mg/kg i.p., day 6, hours following administration
# Procedure: (§3) Individually housed, male 12 week-old Zucker fatty rats (ZFR, Charles River Laboratories) maintained on a custom control low fat (LF) diet (A11072001, Research Diets) were used for the BDK inhibition and PPM1K overexpression studies. For the BDK inhibition study, ZFR were administered the small molecule BDK inhibitor 3,6-dichlorobenzo[b]thiophene-2-carboxylic acid (BT2, Sigma) daily at a dose of 20 mg/kg dissolved in 200 ul of sterile dimethylsulfoxide by i.p. injection for 7 days. The control group was administered an equal volume of vehicle each day. On day 6, following an overnight fast, ZFR were subjected to a 1 g/kg i.p. glucose tolerance test (GTT) precisely 1 hr after administration of BT2 (20 mg/kg i.p.) or vehicle. The glucose tolerance test was performed as described (White, et al., 2016). Following the GTT, rats were returned to their normal cages and provided free access to food and water. Indirect calorimetry was performed in a second cohort of BT2 treated rats on day 6 of BT2 administration. Here ad-libitum fed rats were injected with BT2 (20 mg/kg i.p.) or vehicle immediately prior to being placed in an eight-chamber Oxymax system (Columbus Instruments) for seven hours. During their time in the metabolic cages all rats had free access to food and water. […]
# [3] = tested on: Zucker fatty rats; assay: Tissue acylcarnitine profiling in treated Zucker fatty rats; conditions: ZFR, BT2 20 mg/kg i.p. daily for one week, vs vehicle
# Procedure: as §3
# Metabolite profiling: Amino acids were measured in plasma and liver samples, and acylcarnitines in liver samples. […]
# [4] = tested on: BCKDH; assay: Tissue BCKDH activity assay in treated Zucker fatty rats; conditions: ZFR, BT2 20 mg/kg i.p. daily for one week, vs vehicle
# Procedure: Individually housed, male 12 week-old Zucker fatty rats (ZFR, Charles River Laboratories) maintained on a custom control low fat (LF) diet (A11072001, Research Diets) were used for the BDK inhibition and PPM1K overexpression studies. For the BDK inhibition study, ZFR were administered the small molecule BDK inhibitor 3,6-dichlorobenzo[b]thiophene-2-carboxylic acid (BT2, Sigma) daily at a dose of 20 mg/kg dissolved in 200 ul of sterile dimethylsulfoxide by i.p. injection for 7 days. The control group was administered an equal volume of vehicle each day. On day 6, following an overnight fast, ZFR were subjected to a 1 g/kg i.p. glucose tolerance test (GTT) precisely 1 hr after administration of BT2 (20 mg/kg i.p.) or vehicle. The glucose tolerance test was performed as described (White, et al., 2016). Following the GTT, rats were returned to their normal cages and provided free access to food and water. Indirect calorimetry was performed in a second cohort of BT2 treated rats on day 6 of BT2 administration. Here ad-libitum fed rats were injected with BT2 (20 mg/kg i.p.) or vehicle immediately prior to being placed in an eight-chamber Oxymax system (Columbus Instruments) for seven hours. During their time in the metabolic cages all rats had free access to food and water. The next morning, rats were euthanized in the fed state precisely 1 hr following a final dose of BT2 (20 mg/kg i.p.) or vehicle.
# For the PPM1K overexpression study, male 12 week-old ZFR were administered two doses of cyclosporine (15 mg/kg i.p., Novartis) prior to adenovirus administration. The first dose of cyclosporine was given 24 hours prior and the second dose was administered immediately prior to tail vein injection of Ad-CMV-PPM1K or Ad-CMV-GFP adenovirus (2×10^12 viral particles per kg). Both viruses use the CMV promoter to drive transgene expression. […]
# BCKDH activity assay: Tissue BCKDH activity was measured. […] The ^14CO2 contained in the trap was counted in a Beckman Coulter LS6500 liquid scintillation counter.
# [5] = tested on: ATP citrate lyase (ACL); assay: Immunoblot of phospho-ser454 and total ACL in liver of treated Zucker fatty rats; conditions: ZFR, BT2 vs vehicle
# Procedure: as §3, with “administration.” for “administration. Here ad-libitum fed rats were injected with BT2 (20 mg/kg i.p.) or vehicle immediately prior to being placed in an eight-chamber Oxymax system (Columbus Instruments) for seven hours. During their time in the metabolic cages all rats had free access to food and water.”
# (§4) Immunoblotting: Tissue lysates used for immunoblotting were prepared in Cell Lysis Buffer (Cell Signaling Technologies) containing protease inhibitor tablets (Roche), phosphatase inhibitor cocktails 2 and 3 (Sigma), and 10 mM PMSF. […] Immunoblots were developed using a Li-Cor Odyssey CLx and quantified using the Li-Cor software.
# [6] = tested on: BCKDH e1a; assay: Immunoblot of phospho-ser293 BCKDH e1a in tissues of treated Zucker fatty rats; conditions: ZFR, BT2 20 mg/kg i.p. daily for one week, vs vehicle
# Procedure: as §3, with “administration.” for “administration. Here ad-libitum fed rats were injected with BT2 (20 mg/kg i.p.) or vehicle immediately prior to being placed in an eight-chamber Oxymax system (Columbus Instruments) for seven hours. During their time in the metabolic cages all rats had free access to food and water.”
# as §4
# [7] = tested on: Zucker fatty rats; assay: Liver triacylglyceride content in treated Zucker fatty rats; conditions: ZFR, BT2 20 mg/kg i.p. daily for one week, vs vehicle
# Procedure: as §1, §2
compound,measurement,setting,value
"O=C(O)c1sc2cc(Cl)ccc2c1Cl [BT2, 3,6-dichlorobenzo[b]thiophene-2-carboxylic acid]","circulating TG, cholesterol, glycerol, non-esterified fatty acids (NEFA), or ketones",[1],no effects
same,lactate in circulation,[1],lower levels
same,respiratory exchange ratio (RER),[2],lowered
same,even chain acyl-carnitines in liver,[3],increases
same,even chain acyl-carnitines in skeletal muscle,[3],but not in skeletal muscle
same,BCKDH enzyme activity in heart,[4],increased
same,BCKDH enzyme activity in liver,[4],increased
same,BCKDH enzyme activity in skeletal muscle,[4],small increment
same,"ACL phosphorylation on ser454, immunoblot of liver lysates",[5],markedly less
same,abundance of total ACL protein in liver,[5],trend for lower abundance
same,BCKDH phosphorylation in skeletal muscle,[6],not associated with a detectable change
same,BCKDH phosphorylation on serine 293 of the e1a subunit in liver and heart,[6],lower levels
same,hepatic TG levels,[7],significantly lower
